Results taken from patent US9994554B2, “Barbiturate and thiobarbiturate compounds for use in cancer therapy” (NUHOPE, LLC, priority 2011, dated 2018).

System: U87-MG cells
Assay: U87-MG resazurin cell assay (Example 13)
Assay type: cell-based
Conditions: Homo sapiens, U-87 MG; U87-MG, 5 days (120 hrs) incubation; read-out: Activity Score (Mean pXC50) (converted)
Procedure: U87-MG cells were obtained from the ATCC, LGC Standards (#HTB-14). The cells were screened for mycoplasma (Mycoplasma Experience) and maintained in Biowhittaker Alpha MEM (Lonza #BE02-002F+10% dialyzed US FBS serum (Invitrogen #26400-044), 1% Penstrep (Gibco #15140-122).
Compounds to be tested were transferred into column 1 of a hit plate (96-well PPV Greiner #651201). 20 ul of DMSO was added to columns 2 to 11. The top concentration was 10 mM.
Serial dilution, ten-point one in three dilution curves were created using Perkin Elmer Janus (20 ul clear Robopack disposable tips #6000677 used).
2 ul of each of the compounds was transferred by pre-dispensing into black, clear bottom 96-well CellBIND Corning plates (Fisher #DPS-184-030R) using Platemate 2×2 (ThermoFisher Darts #5506).
200 μl of U87-MG cells were added to columns 1 to 11 at a density of 1000 cells per ml, and media only was dispensed into control column 12 using Wellmate (Small bore tubing set #201-30002).
After 5 days (120 hrs) incubation at 37° C. under 5% CO2 in a humidified incubator, the assay was “stopped” by addition of Resazurin sodium salt at 0.5 mM final concentration (Sigma R7017). The plates were incubated for a further 4 hrs before resorufin readout was taken from a Perkin Elmer EnVision, 550 nm excitation (photo550, Barcode 312), 580 nm emission (M580, Barcode 233), Top Mirror BODIPY (D555, Barcode 405).

Row | SMILES | IC50 [µM]
1 | Cn1cc(/C=C/c2ccccc2)c(=O)n(C)c1=O [DDD00197671] | > 100
2 | O=C1NC(=O)C(=Cc2ccc(F)cc2)C(=O)N1 [DDD00175831] | > 100
3 | CCN1C(=O)C(=C/C=C/c2ccc(OC)cc2)C(=O)N(CC)C1=S [DDD00175800] | 31.6 to 100
4 | COc1ccccc1/C=C/C=C1C(=O)NC(=S)NC1=O [DDD00175819] | 1 to 10
5 | CCN1C(=O)NC(=O)/C(=C2\C=C(c3ccccc3)CCC2)C1=O [DDD00175332] | > 100
6 | CN1C(=O)C(=C/C=C/c2ccccc2N(C)C)C(=O)N(C)C1=O [DDD00197338] | 1 to 10
7 | O=C1NC(=O)C(=Cc2cccnc2)C(=O)N1 [DDD00175833] | > 100
8 | O=C1NC(=O)C(=Cc2c[nH]c3ccccc23)C(=O)N1 [DDD00175790] | > 100
9 | CCN1C(=O)C(=C/C=C/c2cccc(Cl)c2)C(=O)N(CC)C1=S [DDD00175293] | 31.6 to 100
10 | COc1ccccc1/C=C/C=C1C(=O)N(C)C(=O)N(C)C1=O [DDD00175818] | 1 to 10
11 | O=C1NC(=O)C(=C/C=C/c2cccnc2)C(=O)N1 [DDD00197336] | 10 to 31.6
12 | CCN1C(=O)C(=C/C=C/c2ccc(F)cc2)C(=O)N(CC)C1=S [DDD00175839] | 31.6 to 100
13 | CN(C)c1ccccc1/C=C/C=C1C(=O)NC(=S)NC1=O [DDD00197337] | 10 to 31.6
14 | N#Cc1ccc(/C=C/C=C2C(=O)NC(=S)NC2=O)cc1 [DDD00175806] | 31.6 to 100
15 | CN1C(=O)C(=C/C=C/C2CCCCC2)C(=O)N(C)C1=O [DDD00197709] | 10 to 31.6
16 | O=C1NC(=S)NC(=O)C1=C/C=C/c1cccc(F)c1 [DDD00197339] | 1 to 10
17 | CCN1C(=O)/C(=C/C=C/c2ccccc2C)C(=O)NC1=S [DDD00197330] | 1 to 10
18 | CN1C(=O)C(=Cc2ccco2)C(=O)N(C)C1=O [DDD00175280] | > 100
19 | O=C1NC(=O)C(=CC2=Cc3ccccc3OC2)C(=O)N1 [DDD00175835] | 31.6 to 100
20 | CCN1C(=O)C(=C/C=C/c2ccc(Cl)cc2)C(=O)N(CC)C1=S [DDD00175281] | 31.6 to 100
21 | O=C1NC(=O)C(=C/C=C/c2ccc(F)cc2)C(=O)N1 [DDD00175842] | 1 to 10
22 | CN(C)c1ccccc1/C=C/C=C1C(=O)NC(=O)NC1=O [DDD00197357] | 1 to 10

Row | SMILES | IC50 [µM]
23 | CCN1C(=O)NC(=O)/C(=C\C=C\c2ccccc2OC)C1=O [DDD00175817] | 1 to 10
24 | CN1C(=O)C(=Cc2c[nH]c3ccccc23)C(=O)N(C)C1=O [DDD00175791] | > 100
25 | CCN1C(=O)NC(=O)/C(=C\C=C\c2ccc(OC)cc2)C1=O [DDD00175797] | 1 to 10
26 | O=C1NC(=O)C(=Cc2ccc(Cl)c(Cl)c2)C(=O)N1 [DDD00175836] | > 100
27 | CN1C(=O)C(=C/C=C/c2c(F)cccc2F)C(=O)N(C)C1=O [DDD00197343] | 1 to 10
28 | N#Cc1ccccc1/C=C/C=C1C(=O)NC(=O)NC1=O [DDD00197348] | 1 to 10
29 | COc1ccc(/C=C/C=C2C(=O)N(C)C(=O)N(C)C2=O)cc1 [DDD00175794] | 1 to 10
30 | N#Cc1ccc(/C=C/C=C2C(=O)NC(=O)NC2=O)cc1 [DDD00175802] | 10 to 31.6
31 | O=C1NC(=O)C(=C/C=C/c2c(F)cccc2F)C(=O)N1 [DDD00197331] | 1 to 10
32 | CCN1C(=O)C(=C/C=C/c2ccccc2OC)C(=O)N(CC)C1=S [DDD00197350] | 10 to 31.6
33 | O=C1NC(=O)C(Cc2ccccc2)C(=O)N1 [DDD00175824] | > 100
34 | O=C1NC(=O)C(=CC2CCCCC2)C(=O)N1 [DDD00175825] | > 100
35 | O=C1NC(=O)C(=Cc2ccccc2)C(=O)N1 [DDD00175828] | > 100
36 | Cc1ccc(/C=C/C=C2C(=O)NC(=S)NC2=O)cc1 [DDD00175798] | 1 to 10
37 | CCN1C(=O)/C(=C/C=C/c2cccc(F)c2)C(=O)NC1=S [DDD00197354] | 10 to 31.6
38 | O=C1NC(=O)C(=Cc2ccccc2F)C(=O)N1 [DDD00175821] | > 100
39 | O=C1NC(=O)C(=C/C=C/c2ccccc2Cl)C(=O)N1 [DDD00175339] | 1 to 10
40 | CN1C(=O)C(=C/C=C/c2ccc(N(C)C)cc2)C(=O)N(C)C1=O [DDD00175795] | 31.6 to 100
41 | O=C1NC(=O)C(=Cc2ccccn2)C(=O)N1 [DDD00175837] | > 100
42 | CCN1C(=O)/C(=C\C=C\c2ccco2)C(=O)N(C2CCOCC2)C1=O [DDD00175792] | 10 to 31.6
43 | CN(C)c1ccc(/C=C/C=C2C(=O)NC(=O)NC2=O)cc1 [DDD00175803] | 10 to 31.6
44 | CCN1C(=O)NC(=O)/C(=C\C=C\c2ccccc2N(C)C)C1=O [DDD00197344] | 1 to 10

Row | SMILES | IC50 [µM]
45 | CN1C(=O)C(=CC2=Cc3cc(Cl)ccc3OC2)C(=O)N(C)C1=O [DDD00175830] | 31.6 to 100
46 | CCN1C(=O)NC(=O)/C(=C\C=C\c2cccc(Cl)c2)C1=O [DDD00175297] | ≤ 1
47 | CCN1C(=O)NC(=O)/C(=C\C=C\c2ccc(F)cc2)C1=O [DDD00175841] | 1 to 10
48 | O=C1NC(=O)C(=C/C=C/c2ccc(Cl)cc2Cl)C(=O)N1 [DDD00175271] | 1 to 10
49 | O=C1NC(=O)C(=C/C=C/c2cccc(Cl)c2)C(=O)N1 [DDD00175302] | ≤ 1
50 | O=C1NC(=O)C(=C/C=C/c2ccc(Cl)cc2)C(=O)N1 [DDD00175286] | ≤ 1
51 | CCN1C(=O)C(=C/C=C/c2ccccc2C)C(=O)N(CC)C1=S [DDD00175816] | 10 to 31.6
52 | CCN1C(=O)C(=C2C=C(c3ccccc3)CCC2)C(=O)N(CC)C1=S [DDD00175338] | > 100
53 | O=C1NC(=O)C(=Cc2ccncc2)C(=O)N1 [DDD00175820] | > 100
54 | CCN1C(=O)NC(=O)/C(=C\C=C\c2ccc(C)cc2)C1=O [DDD00175801] | 1 to 10
55 | O=C1NC(=O)C(=C/C=C/c2cccc(F)c2)C(=O)N1 [DDD00197332] | 1 to 10
56 | Cc1ccc(/C=C/C=C2C(=O)NC(=O)NC2=O)cc1 [DDD00175796] | 1 to 10
57 | COc1ccccc1/C=C/C=C1C(=O)NC(=O)NC1=O [DDD00175832] | 1 to 10
58 | CCN1C(=O)C(=C/C=C/c2ccc(N(C)C)cc2)C(=O)N(CC)C1=S [DDD00197342] | 31.6 to 100
59 | Cc1ccccc1/C=C/C=C1C(=O)NC(=S)NC1=O [DDD00197329] | 1 to 10
60 | CCN1C(=O)NC(=O)/C(=C\C=C\c2cccc(N(C)C)c2)C1=O [DDD00197341] | 1 to 10
61 | CCN1C(=O)NC(=O)/C(=C\C=C\c2ccc(N(C)C)cc2)C1=O [DDD00175804] | 1 to 10
62 | CN1C(=O)C(=C/C=C/c2ccccc2)C(=O)N(C)C1=O [DDD00175285] | 1 to 10
63 | COc1cccc(C=C2C(=O)NC(=O)NC2=O)c1 [DDD00175827] | > 100
64 | COc1ccc(/C=C/C=C2C(=O)NC(=S)NC2=O)cc1 [DDD00175805] | 1 to 10
65 | CN1C(=O)C(C(C)(O)/C=C/c2ccccc2)C(=O)N(C)C1=O (stereo not shown) [DDD00197352] | > 100
66 | CN1C(=O)C(=C/C=C/c2cccc(N(C)C)c2)C(=O)N(C)C1=O [DDD00197346] | 1 to 10

Row | SMILES | IC50 [µM]
67 | CCN1C(=O)NC(=O)/C(=C\C=C\c2cccc(F)c2)C1=O [DDD00197347] | 1 to 10
68 | CCN1C(=O)NC(=O)/C(=C\C=C\c2ccccc2F)C1=O [DDD00175810] | 1 to 10
69 | CCN1C(=O)NC(=O)/C(=C\C=C\c2ccccc2C)C1=O [DDD00175813] | 1 to 10
70 | CCN1C(=O)C(=C/C=C/c2ccc(C)cc2)C(=O)N(CC)C1=S [DDD00175807] | 31.6 to 100
71 | COc1ccc(/C=C/C=C2C(=O)NC(=O)NC2=O)cc1 [DDD00175799] | 1 to 10
72 | O=C1NC(=O)C(=C/C=C/c2ccccc2F)C(=O)N1 [DDD00175808] | 1 to 10
73 | COc1ccc(C=C2C(=O)NC(=O)NC2=O)cc1 [DDD00175838] | > 100
74 | COc1ccc2c(c1)OCC(C=C1C(=O)N(C)C(=O)N(C)C1=O)=C2 [DDD00175826] | 31.6 to 100
75 | CN1C(=O)C(=C/C=C/c2ccccc2F)C(=O)N(C)C1=O [DDD00175811] | 1 to 10
76 | Cc1ccccc1/C=C/C=C1C(=O)NC(=O)NC1=O [DDD00175809] | 1 to 10
77 | CN1C(=O)C(=C/C=C/c2cccc(F)c2)C(=O)N(C)C1=O [DDD00197351] | 1 to 10
78 | O=C1NC(=O)C(=Cc2cccc(Cl)c2)C(=O)N1 [DDD00175823] | > 100
79 | CCN1C(=O)C(=C/C=C/c2c(F)cccc2F)C(=O)N(CC)C1=S [DDD00197345] | 31.6 to 100
80 | CCN1C(=O)/C(=C/C=C/c2ccc(F)cc2)C(=O)NC1=S [DDD00175840] | 31.6 to 100
81 | O=C1NC(=O)C(=Cc2cccc(F)c2)C(=O)N1 [DDD00175822] | > 100
82 | O=C1NC(=O)C(=C/C=C/c2ccccc2[N+](=O)[O-])C(=O)N1 [DDD00175834] | 1 to 10
83 | CCN1C(=O)/C(=C/C=C/c2ccccc2OC)C(=O)NC1=S [DDD00197355] | 1 to 10
84 | O=C1NC(=S)NC(=O)C1=C/C=C/c1ccccc1F [DDD00197349] | 1 to 10
85 | CCN1C(=O)/C(=C\C=C\c2ccccc2)C(=O)N(C2CCOCC2)C1=O [DDD00175789] | 1 to 10
